Results reported in patent US20230036854A1, “HETEROCYCLIC SPIRO-COMPOUNDS AS AM2 RECEPTOR INHIBITORS” (THE UNIVERSITY OF SHEFFIELD, priority 2018, published 2023).

Molecular target: T1, AM2 receptor (1321N1 cells transfected with CALCRL+RAMP3) (Homo sapiens, UniProt O60896+Q16602)
T1 construct: host or cells: 1321N1 cells
Assay: AM2 receptor inhibition, LANCE cAMP agonist-antagonist competition assay
Type: cell-based
Conditions: inhibition of AM induced cAMP activation, read-out: AM2 D2 protocol: pIC50 (converted)
Protocol: Compounds were assessed for their ability to inhibit ligand-induced elevations of cAMP, using the Perkin Elmer LANCE cAMP assay using commercially-available cells expressing a specific receptor of interest using the following general procedure:
Compounds were prepared in dimethyl sulfoxide (DMSO—99.9% pure) (Sigma Aldrich, Cat #: D4540) added to powder stocks to produce a 20 mM solution (100% DMSO) that was sonicated at 37° C. for 10 minutes to fully dissolve the compounds. The 20 mM stocks were diluted further in DMSO to produce a 2 mM solution that was sonicated at 37° C. for 10 minutes. 2 mM stocks were dissolved in assay/stimulation buffer to produce a 400 μM solution that was sonicated at 37° C. for 10 minutes for all cAMP assays. All stocks were stored at −20° C. Then serial dilution (Dilution factor: 10) was performed to achieve the desire experimental concentrations.
Competition assays were performed according to the manufactures instructions using LANCE® TR-FRET cAMP assay kit (Perkin Elmer, Cat #: AD0264). Serial dilutions (3 μl/well) of the molecules were plated in a 384-well OptiPlate (Perkin Elmer, Cat #: 6007299) in duplicates. Appropriate controls (100% stimulation: Forskolin and 0% stimulation: Vehicle control) (6 μl/well) were included in each plate for data normalization. Following the compound addition, 6 μl of G-protein coupled receptor overexpressing cells/Alexa Fluor antibody solution (1:100 dilution) was added in each well at a desired density of 2500cells/well. The overexpressing cell lines were purchased from DiscoveRx, Birmingham, UK. After spinning the plate at 1000 rpm for 1 minute and vortexing briefly, the cells were pre-incubated with the compounds for 30 minutes at room temperature (covered). Then 3 μl of the equivalent peptide ligand (EC50 dose) was added to all the wells except vehicle and forskolin controls. The plate were then spun down at 1000 rpm for 1 minute and once finished they were vortexed briefly and covered. Cells were stimulated in the presence of the ligands for 15 minutes at room temperature. After stimulation 12 μl of detection mix (Europium-Chelate streptavidin/biotinylated cAMP tracer solution) was added to all wells and incubated for 60 minutes at room temperature. The plate was then read on the Enspire multimode Plate reader (Perkin Elmer), at; 320/340 nm excitation and 615/665 nm emission was recorded.
Assay/Stimulation Buffer (30 mL)—pH 7.4 • 28 mL Hank's Balanced salt solution (+MgCl2, +CaCl2)—(Thermo Fisher Cat #:14170112) • 150 μl HEPES (1M)—(Thermo Fisher Cat #:15630080) • 400 μl Stabilizer (DTPA) Purified BSA (7.5%)—(Perkin Elmer, Cat #: CR84-100)
The ability of a compound to inhibit the AM induced cAMP activation in AM2 receptor-expressing cells (1321N1 cells transfected with CALCRL+RAMP3, sourced from DiscoverX catalogue number 95-0169C6) was assessed using the protocol above.

T1 sequence (Q16602 23-461): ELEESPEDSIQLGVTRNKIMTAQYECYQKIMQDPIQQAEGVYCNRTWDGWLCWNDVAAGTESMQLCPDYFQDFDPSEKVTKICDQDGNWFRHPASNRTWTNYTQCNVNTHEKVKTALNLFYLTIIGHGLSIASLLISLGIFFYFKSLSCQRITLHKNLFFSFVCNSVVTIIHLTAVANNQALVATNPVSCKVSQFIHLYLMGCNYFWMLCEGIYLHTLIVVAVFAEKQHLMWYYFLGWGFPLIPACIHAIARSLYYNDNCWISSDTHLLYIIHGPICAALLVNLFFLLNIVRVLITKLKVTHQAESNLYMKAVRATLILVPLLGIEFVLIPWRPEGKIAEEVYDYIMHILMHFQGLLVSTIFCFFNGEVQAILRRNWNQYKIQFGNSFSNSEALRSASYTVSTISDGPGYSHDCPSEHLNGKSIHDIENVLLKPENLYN
T1 sequence (O60896 24-148): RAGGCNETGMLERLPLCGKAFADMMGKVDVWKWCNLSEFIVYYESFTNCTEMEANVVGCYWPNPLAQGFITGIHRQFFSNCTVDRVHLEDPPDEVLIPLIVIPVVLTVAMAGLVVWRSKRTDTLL

Structure (SMILES) | IC50
CNCc1ccccc1CN(CC(=O)Nc1ccc2c(c1)CC1(C2)C(=O)Nc2ncccc21)C(=O)C1(C)CCNCC1 (stereo not shown) [Example 2, 4-Methyl-N-(2-((methylamino)methyl)benzyl)-N-(2-oxo-2-((2′-oxo-1,1′,2′,3-tetrahydrospiro[indene-2,3′-pyrrolo[2,3-b]pyridin]-5-yl)amino)ethyl)piperidine-4-carboxamide bis(2,2,2-trifluoroacetate)] | 3.39 nM
CNCc1ccccc1CN(CC(=O)Nc1ccc2c(c1)C[C@@]1(C2)C(=O)Nc2ncccc21)C(=O)C1(C)CCNCC1 [Example 3, (R)-4-Methyl-N-(2-((methylamino)methyl)benzyl)-N-(2-oxo-2-((2′-oxo-1,1′,2′,3-tetrahydrospiro[indene-2,3′-pyrrolo[2,3-b]pyridin]-5-yl)amino)ethyl)piperidine-4-carboxamide] | 7.76 nM
CNCc1ccccc1CN(CC(=O)Nc1ccc2c(c1)CC1(C2)C(=O)Nc2ncccc21)C(=O)C1(C)CCN(C(=O)c2ccccc2)CC1 (stereo not shown) [Example 4, 1-Benzoyl-4-methyl-N-(2-((methylamino)methyl)benzyl)-N-(2-oxo-2-((2′-oxo-1,1′,2′,3-tetrahydrospiro[indene-2,3′-pyrrolo[2,3-b]pyridin]-5-yl)amino)ethyl)piperidine-4-carboxamide] | 2.19 nM
CNCc1ccccc1CN(CC(=O)Nc1ccc2c(c1)CC1(C2)C(=O)Nc2ncccc21)C(=O)C1(C)CCN(C(=O)c2ccncc2)CC1 (stereo not shown) [Example 6, 1-Isonicotinoyl-4-methyl-N-(2-((methylamino)methyl)benzyl)-N-(2-oxo-2-((2′-oxo-1,1′,2′,3-tetrahydrospiro[indene-2,3′-pyrrolo[2,3-b]pyridin]-5-yl)amino)ethyl)piperidine-4-carboxamide] | 2.29 nM
CNCc1ccccc1CN(CC(=O)Nc1ccc2c(c1)C[C@@]1(C2)C(=O)Nc2ncccc21)C(=O)C1(C)CCN(C(=O)c2cccc(N)n2)CC1 [Example 10, (R)-1-(6-Aminopicolinoyl)-4-methyl-N-(2-((methylamino)methyl)benzyl)-N-(2-oxo-2-((2′-oxo-1,1′,2′,3-tetrahydrospiro[indene-2,3′-pyrrolo[2,3-b]pyridin]-5-yl)amino)ethyl)piperidine-4-carboxamide] | 8.91 nM
CNCc1ccccc1CN(CC(=O)Nc1ccc2c(c1)C[C@@]1(C2)C(=O)Nc2ncccc21)C(=O)C1(C)CCN(C(=O)C2CCN(C(C)=O)CC2)CC1 [Example 12, (R)-1-(1-Acetylpiperidine-4-carbonyl)-4-methyl-N-(2-((methylamino)methyl)benzyl)-N-(2-oxo-2-((2′-oxo-1,1′,2′,3-tetrahydrospiro[indene-2,3′-pyrrolo[2,3-b]pyridin]-5-yl)amino)ethyl)piperidine-4-carboxamide] | 9.12 nM
CNCc1ccccc1CN(CC(=O)Nc1ccc2c(c1)C[C@@]1(C2)C(=O)Nc2ncccc21)C(=O)C1(C)CCN(C(=O)Cc2ccncc2)CC1 [Example 13, (R)-4-Methyl-N-(2-((methylamino)methyl)benzyl)-N-(2-oxo-2-((2′-oxo-1,1′,2′,3-tetrahydrospiro[indene-2,3′-pyrrolo[2,3-b]pyridin]-5-yl)amino)ethyl)-1-(2-(pyridin-4-yl)acetyl)piperidine-4-carboxamide] | 15.5 nM
CNCc1ccccc1CN(CC(=O)Nc1ccc2c(c1)CC1(C2)C(=O)Nc2ncccc21)C(=O)C1(C)CCN(C(=O)c2cccnc2)CC1 (stereo not shown) [Example 14, 4-Methyl-N-(2-((methylamino)methyl)benzyl)-1-nicotinoyl-N-(2-oxo-2-((2′-oxo-1,1′,2′,3-tetrahydrospiro[indene-2,3′-pyrrolo[2,3-b]pyridin]-5-yl)amino)ethyl)piperidine-4-carboxamide] | 2 nM
CNCc1ccccc1CN(CC(=O)Nc1ccc2c(c1)CC1(C2)C(=O)Nc2ncccc21)C(=O)C1(C)CCN(C(=O)c2ccccn2)CC1 (stereo not shown) [Example 15, 4-Methyl-N-(2-((methylamino)methyl)benzyl)-N-(2-oxo-2-((2′-oxo-1,1′,2′,3-tetrahydrospiro[indene-2,3′-pyrrolo[2,3-b]pyridin]-5-yl)amino)ethyl)-1-picolinoylpiperidine-4-carboxamide] | 0.759 nM
CNCc1ccccc1CN(CC(=O)Nc1ccc2c(c1)C[C@@]1(C2)C(=O)Nc2ncccc21)C(=O)C1(C)CCN(C(=O)C(C)C)CC1 [Example 16, (R)-1-Isobutyryl-4-methyl-N-(2-((methylamino)methyl)benzyl)-N-(2-oxo-2-((2′-oxo-1,1′,2′,3-tetrahydrospiro[indene-2,3′-pyrrolo[2,3-b]pyridin]-5-yl)amino)ethyl)piperidine-4-carboxamide] | 3.24 nM

Second part, the molecule after the results:

IC50 | Structure (SMILES)
2.57 nM | CNCc1ccccc1CN(CC(=O)Nc1ccc2c(c1)CC1(C2)C(=O)Nc2ncccc21)C(=O)C1(C)CCN(C(C)=O)CC1 (stereo not shown) [Example 1, 1-Acetyl-4-methyl-N-(2-((methylamino)methyl)benzyl)-N-(2-oxo-2-((2′-oxo-1,1′,2′,3-tetrahydrospiro[indene-2,3′-pyrrolo[2,3-b]pyridin]-5-yl)amino)ethyl)piperidine-4-carboxamide 2,2,2-trifluoroacetate]
1.48 nM | CNCc1ccccc1CN(CC(=O)Nc1ccc2c(c1)CC1(C2)C(=O)Nc2ncccc21)C(=O)C1(C)CCN(C(=O)C2CCC2)CC1 (stereo not shown) [Example 5, 1-(Cyclobutanecarbonyl)-4-methyl-N-(2-((methylamino)methyl)benzyl)-N-(2-oxo-2-((2′-oxo-1,1′,2′,3-tetrahydrospiro[indene-2,3′-pyrrolo[2,3-b]pyridin]-5-yl)amino)ethyl)piperidine-4-carboxamide]
4.07 nM | CNCc1ccccc1CN(CC(=O)Nc1ccc2c(c1)C[C@@]1(C2)C(=O)Nc2ncccc21)C(=O)C1(C)CCN(C(=O)CC2CCNCC2)CC1 [Example 7, (R)-4-Methyl-N-(2-((methylamino)methyl)benzyl)-N-(2-oxo-2-((2′-oxo-1,1′,2′,3-tetrahydrospiro[indene-2,3′-pyrrolo[2,3-b]pyridin]-5-yl)amino)ethyl)-1-(2-(piperidin-4-yl)acetyl)piperidine-4-carboxamide]
18.2 nM | CNCc1ccccc1CN(CC(=O)Nc1ccc2c(c1)C[C@@]1(C2)C(=O)Nc2ncccc21)C(=O)C1(C)CCN(C(=O)C[C@@H]2CCNC2)CC1 [Example 8, 4-Methyl-N-(2-((methylamino)methyl)benzyl)-N-(2-oxo-2-(((R)-2′-oxo-1,1′,2′,3-tetrahydrospiro[indene-2,3′-pyrrolo[2,3-b]pyridin]-5-yl)amino)ethyl)-1-(2-((S)-pyrrolidin-3-yl)acetyl)piperidine-4-carboxamide]
5.13 nM | CNCc1ccccc1CN(CC(=O)Nc1ccc2c(c1)C[C@@]1(C2)C(=O)Nc2ncccc21)C(=O)C1(C)CCN(C(=O)C2CCNCC2)CC1 [Example 9, (R)-4-Methyl-N-(2-((methylamino)methyl)benzyl)-N-(2-oxo-2-((2′-oxo-1,1′,2′,3-tetrahydrospiro[indene-2,3′-pyrrolo[2,3-b]pyridin]-5-yl)amino)ethyl)-1-(piperidine-4-carbonyl)piperidine-4-carboxamide]
6.46 nM | CNCc1ccccc1CN(CC(=O)Nc1ccc2c(c1)C[C@@]1(C2)C(=O)Nc2ncccc21)C(=O)C1(C)CCN(C(=O)C[C@H]2CCNC2)CC1 [Example 11, 4-Methyl-N-(2-((methylamino)methyl)benzyl)-N-(2-oxo-2-(((R)-2′-oxo-1,1′,2′,3-tetrahydrospiro[indene-2,3′-pyrrolo[2,3-b]pyridin]-5-yl)amino)ethyl)-1-(2-((R)-pyrrolidin-3-yl)acetyl)piperidine-4-carboxamide]
